Measurements as given in patent US12114987B2, “Perception loss detection” (OXFORD UNIVERSITY INNOVATION LIMITED, priority 2012, dated 2024).

Test system: slow wave oscillations in the scalp electroencephalogram
Source text: Multiple electrodes, including Magnetic Resonance (hereinafter “MR”) compatible 32 channel electroencephalography (hereinafter “EEG”) caps (BrainCap MR, Easycap GmbH, Herrsching, Germany) are used in the illustrated example for EEG acquisition.
Amplifiers are connected in the illustrated example using MR-safe fibre optic cables to a universal serial bus (USB) adaptor and then to a laptop computer (or other recording and EEG processing medium), which includes the processor 18 and the database 19. The laptop simultaneously records the timings of fMRI volumes (gradient onset markers), stimuli and button presses. For the paradigm in FIG. 5, samples of the electrical signals are acquired at 5000 Hz and initially referenced to channel CPz. The amplification hardware imposes a highpass filter of 0.1 Hz and a lowpass filter of 250 Hz on acquisition. The acquisition software applies a highpass filter of 0.5 Hz and a lowpass filter of 70 Hz as well as a notch filter of 50 Hz. […]
For time-frequency analysis, the frequency power spectrum over time within the 0.5-30 Hz range is calculated using a multitaper spectral analysis (using Chronux®) with window size=3 s and step size=4s. Phasic changes in EEG absolute and relative power in the specific frequency bands of interest, i.e. beta (15-30 Hz), alpha (9-14 Hz), theta (4-8 Hz) and slow wave (0.5-1.5 Hz) bands, are calculated. […]

For CC(C)c1cccc(C(C)C)c1O [propofol], the “peak absolute power of slow wave oscillations (0.5-1.5 Hz band), range between subjects” value (16 subjects, gradual propofol administration, peak propofol level 4.0 mcg ml−1, scalp EEG) was 10.84-83.78 μV2 and the “activity of slow wave oscillations in the scalp electroencephalogram with increasing doses” value (after the human has lost verbal responsiveness, increasing doses of propofol) was “reaches a maximum or saturation point”.
